Reference: PMC12254266, “Multicolored sequential resonance energy transfer for detection of simultaneous ligand binding at G protein-coupled receptors” (Nature Communications, 2025)
Where “and” joins values, the source holds several entries; their conditions need not be identical. Identical values can stand only once. Like-named read-outs stand apart in the source and are kept apart here.

What was measured:
Nluc-FFA1 = molecular target: T1, Nluc-FFA1 (Homo sapiens, UniProt O14842); test: NanoBRET binding (saturation, competition, kinetics) at N terminal Nluc tagged FFA1
T1 construct: expressed in transfected cells

Aqueous solubility = type: physicochemical; conditions: in words, relative to previous analogues
FFA1-Nluc = FFA1-Nluc (Homo sapiens, UniProt O14842); test: NanoBRET binding (saturation, kinetics) at C terminal Nluc tagged FFA1; parameters: expressed in transfected cells
Summary of the method: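 Doxycycline-induced (100 ng/mL, 24 h) FFA1-Nluc Flp-In T-REx 293 cells in HBSS with NanoGlo substrate (1:800). Endpoint binding used 5 min with fluorescent ligand at 37 °C. Kinetics were read at 25 °C: association ~10 min, then dissociation with excess competitor for 30 min. The read-out was the acceptor/donor BRET ratio.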

[1] = Nluc-FFA1, multiple concentration of labelled ligand association model

T1 sequence (O14842 whole entry): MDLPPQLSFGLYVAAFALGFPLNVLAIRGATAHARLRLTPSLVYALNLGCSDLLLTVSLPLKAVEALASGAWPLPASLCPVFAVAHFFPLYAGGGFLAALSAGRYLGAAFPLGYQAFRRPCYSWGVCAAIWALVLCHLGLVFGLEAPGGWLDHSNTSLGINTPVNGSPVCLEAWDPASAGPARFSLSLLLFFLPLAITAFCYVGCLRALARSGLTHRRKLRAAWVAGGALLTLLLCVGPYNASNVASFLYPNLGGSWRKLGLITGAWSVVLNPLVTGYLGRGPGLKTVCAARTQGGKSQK
FFA1-Nluc, sequence (O14842 whole entry): as above

Kd (Nluc-FFA1; Nluc-FFA1, 95% confidence interval in parentheses, read-out: Kd, saturation BRET binding): 390 nM
Specific BRET (540/450) Ratio (Nluc-FFA1; Nluc-FFA1, [TUG-2597] 550 nM): 0.0530 and 0.0471 and 0.0466
kOn Nano-BRET (Nluc-FFA1; Nluc-FFA1, association then dissociation model): 58333.33 M⁻¹ s⁻¹
kOff Nano-BRET (Nluc-FFA1; Nluc-FFA1, association then dissociation model, TUG-2591 100 nM then TUG-905 10 μM, or TUG-2597 […] then T360 10 μM): 0.00633 s⁻¹
Kd (Nluc-FFA1; Nluc-FFA1, association then dissociation model, read-out: Kd Nano-BRET (kinetic)): 110 nM
kOff Nano-BRET Multiple Concentration (Nluc-FFA1; [1]): 0.0065 s⁻¹
kOn Nano-BRET Multiple Concentration (Nluc-FFA1; [1]): 12000 M⁻¹ s⁻¹
Kd (Nluc-FFA1; Nluc-FFA1, read-out: Kd Nano-BRET Multiple Concentration (kinetic)): 540 nM
kOff Nano-BRET Allosterism, Nluc-FFA1 (Nluc-FFA1; TUG-2591 (1 μM) in the presence of T360 (30μM), TUG-2597 (1 μM) in the presence of TUG-905 (30μM), 95% CI in parentheses): 0.20 (0.195-0.203) min-1
Kd (Nluc-FFA1; footnotes of Supplementary Table 3, read-out: Kd values obtained in NanoBRET saturation experiments (used for pKi) (converted)): 380 nM
Kd (Nluc-FFA1; using either Nluc location (N or C terminal), read-out: Kd, saturation NanoBRET): 350 to 440 nM
aqueous solubility (Aqueous solubility): improved aqueous solubility
Kd (FFA1-Nluc; FFA1-Nluc, 95% confidence interval in parentheses, read-out: Kd, saturation BRET binding): 380 nM
Specific BRET (540/450) Ratio (FFA1-Nluc; FFA1-Nluc, [TUG-2597] 550 nM): 0.0328 and 0.0282
kOff Nano-BRET Allosterism, FFA1-Nluc (FFA1-Nluc; TUG-2597 (1 μM) in the presence of TUG-905 (30μM), 95% CI in parentheses): 0.24 (0.23-0.25) min-1
kOff Nano-BRET Single Concentration (FFA1-Nluc; based on the value calculated in Supplementary Table 4): 0.00633 s⁻¹
kOn Nano-BRET Single Concentration (FFA1-Nluc; no pre-treatment, NBD/Nluc (Sup. Fig. 10A)): 23333.33 M⁻¹ s⁻¹
Kd (FFA1-Nluc; no pre-treatment, read-out: Kd Nano-BRET Single Concentration (kinetic)): 270 nM
SMILES: COc1ccc(C(=O)N(CC(C)(C)CNc2ccc([N+](=O)[O-])c3nonc23)c2cccc(C)n2)c(N2CCC(COc3cccc(C(CC(=O)O)C4CC4)c3)CC2)c1.O=C(O)C(F)(F)F (stereo not shown) [TUG-2597]
Specific BRET (Nluc-FFA1; Nluc-FFA1 (Fig 1F), percentage of the maximal signal, [TUG-2597] 550 nM): 73.921% and 62.249% and 55.324% and 54.737% and 83.741% and 100.190%
Specific BRET (540/450) Ratio (Nluc-FFA1; Nluc-FFA1, [TUG-2597] 100 nM): 0.0112 and 0.0100 and 0.0162 and 0.0091 and 0.0128 and 0.0161
Specific BRET (540/450) Ratio (Nluc-FFA1; Nluc-FFA1, [TUG-2597] 1000 nM): 0.0547 and 0.0609 and 0.0560 and 0.0683 and 0.0664 and 0.0577
Specific BRET (FFA1-Nluc; FFA1-Nluc (Fig 1E), percentage of the maximal signal, [TUG-2597] 550 nM): 49.872% and 58.619% and 50.406% and 58.181% and 46.189%
